Results published in US20230075584A1, “INTRANASAL ADMINISTRATION OF GLUTAMATE CARBOXYPEPTIDASE (GCP-II) INHIBITORS” (The Johns Hopkins University, priority 2015, published 2023).
Where “and” joins values, the source holds several entries; their conditions need not be identical. Identical values can stand only once. Entries after “also recorded” stand apart in the source; their conditions may differ. Like-named read-outs stand apart in the source and are kept apart here.

Assays:
[1] = Plasma and CSF exposure after i.n. administration in non-human primate; details: cynomolgus monkey, 30 min post dose
Protocol: A male cynomolgus monkey (approximately 3.5 kg, non-drug naive) was housed in a stainless steel cage (size 30″ (76.2 cm) wide×31″ (78.74 cm) deep×31.5″ (80.01 cm) high) maintaining temperature of 64-84° F. (17.8° C.-28.9° C.), humidity of 30-70% with alternating 12-hour light/dark cycle as per the USDA Animal Welfare Act (9 CFR, Parts 1, 2, and 3).
The monkey was sedated with 45 mg of ketamine and 0.25 mg of midazolam given as an intramuscular injection prior to test article administration. Sedation was maintained through blood and cerebrospinal fluid (CSF) sample collections with ketamine/midazolam at a starting rate of 20 mg/kg/hr ketamine and 0.4 mg/kg/hr midazolam. […] The device was actuated for a period of 2 min in one nostril (depositing 100 μL). The nose piece was cleaned with a mist of air and then the same procedure was performed in the second nostril (100 μL). Total dose delivered was 100 mg. CSF sample (target of 50 μL) was obtained by an indwelling cannula placed in the intrathecal space at the cisterna magna at 0.5 h post dose. Blood was collected via venipuncture of the femoral vein at 0.5 h post dose and plasma was obtained by low speed centrifugation at 1500×g for 10 minutes. The plasma was flash-frozen on dry ice after separation. Plasma and CSF samples were stored in a freezer set at −70° C., until bioanalysis.
Standard curves were generated in blank artificial CSF. Calibration curves were constructed in the range of 0.113-22.6 μg/mL. Samples were analyzed on Agilent QTOF mass spectrometer by LC/MS. Samples (20 μL) were injected and separated on an Agilent 1290 LC equipped with an Agilent Eclipse Plus C18 column (2.1×100 mm) packed with 1.8 micron stationary phase. The mobile phase consisted of 0.1% formic acid in water and 0.1% formic acid in acetonitrile with an isocratic elution at 2.5% organic. […] Calibration curves were generated with a correlation coefficient >0.99 in a similar manner as described above.

[2] = target: T1, GCP-II (Rattus norvegicus, UniProt P70627); assay: Ex vivo GCP-II enzymatic (NAAG hydrolyzing) activity in rodent brain tissue after i.n. administration
T1 construct: from tissue; host or cells: rat brain (olfactory bulb, cortex, cerebellum), sonicated in Tris buffer, supernatant
Protocol: Rodent ex vivo GCP-II enzymatic activity: One half of the brain tissues collected following i.n. administration (lh post dose) was used to determine GCP-II NAAG hydrolyzing activity. In brief, tissues were weighed and immersed in 0.5 mL of ice-cold 50 mM Tris Buffer (pH 7.7 at RT). Each tissue was sonicated for 30-60 seconds using an ultrasonic cell disrupter. After a 2 minute spin at 13,000 g, supernatants were analyzed for protein content and NAAG-hydrolyzing activity measurements were performed as previously described (Rojas et al., 2012; Robinson et al., 1987).

[3] = Pharmacokinetics of i.p. versus i.n. administered 2-PMPA in rat plasma and brain tissues; type: in vivo; details: 30 mg/kg i.n.; for Kp: male, Wistar, other: intranasal, 30 mg/kg
[4] = as above; type: in vivo
Protocol: For i.p. studies, 2-PMPA was administered as a single i.p. dose. All dosing solutions were prepared on the day of the experiment in 50 mM HEPES buffered saline, and pH adjusted to 7.4 before injection. At various time points following drug administration (0.16 h, 0.5 h, 1 h, 3 h, 5 h) post dose, animals (n=3 per time point, except 3 h n=2 animals) were euthanized with CO2, and blood samples were collected in heparinized microtubes by cardiac puncture and tissues (olfactory bulb, frontal cortex, and cerebellum) were dissected and immediately flash frozen (−80° C.). Plasma was prepared by centrifugation immediately after collection of blood samples. All samples were stored in −80° C. until bioanalysis.
The samples were vortexed and centrifuged.
The maximum plasma concentration (Cmax) and time to Cmax (Tmax) were the observed values. The area under the plasma concentration time curve (AUC) value was calculated to the last quantifiable sample (AUClast) by use of the log linear trapezoidal rule. The brain-to-plasma partition coefficients were calculated as a ratio of their AUCs (AUC0-t, brain/AUC0-t, plasma). The elimination half-life (t1/2) was determined by dividing 0.693 by λz.

[5] = Brain concentrations 1 h after intranasal administration in rats (single time point); type: in vivo; details: rat, 30 mg/kg i.n., 1 hr post dose; for concentration at 1 h: male, Wistar, in vivo, 30 mg/kg
[6] = non-human primates; halted development; cited from earlier work
[7] = purified enantiomers, intranasal
Protocol: Rodent i.n. and i.p. dosing: Studies were conducted in male Wistar rats (6-8 weeks; weighing between 200 gm to 250 gm) obtained from Harlan® Laboratories (Indianapolis, Ind.) that were maintained in a controlled environment and allowed food and water ad libitum. Intranasal administrations were performed according to previously described methods with minor modifications. Briefly, rats were anesthetized with a 1-1.5 mL intraperitoneal (i.p.) dose of 10% chloral hydrate (approved under the protocol RA #13), and kept under anesthesia with additional chloral hydrate as needed throughout the entire experiment. To prevent drainage of nasally dosed solution, the nasal cavity was isolated from the respiratory and gastrointestinal tracts. An incision was made along the neck, and the trachea isolated and transected. The upper part was tied off with a 3-0 silk suture, and the lower part cannulated with PE240 tubing to aid air breathing. Rats were maintained lying on their back, and in this position, given 10 μL (375 mg/mL) of the experimental drug solution per nostril using a micro-syringe connected to 1.5 cm PE-10 tube. The total dose received was 30 mg/kg for each drug solution.
Briefly, prior to extraction, frozen samples were thawed on ice. For plasma samples, 50 μL of the calibration standard or sample were transferred into silanized vials. For brain tissues, the samples were weighed in a 1.7 mL silanized vials to which 4 times the volume of methanol (dilution 1:5) was added. The tissues were stored in −20° C. for 1 h and then homogenized. The calibration curves were developed using plasma and brain from untreated animals as a matrix. For plasma, sample preparation involved a single liquid extraction by addition of 300 μL of methanol as extraction solution with internal standard, followed by vortexing for 30 s and then centrifugation at 12000×g for 10 min. Supernatant was transferred and evaporated to dryness at 40° C. under a gentle stream of nitrogen. For brain tissue, homogenized samples were vortexed and centrifuged as above, and 100 μL supernatant was mixed with 100 μL of internal standard in methanol, and then evaporated to dryness at 40° C. under a gentle stream of nitrogen. […] For derivatization, the residue was reconstituted with 100 μL of n-butanol with 3N HCl and samples were vortexed. The samples were heated at 60° C. in a shaking water bath for 30 min. At the end of 30 min, the derivatized samples were dried under a gentle stream of nitrogen. […] The samples were vortexed and centrifuged. Supernatant (75 μL) was transferred to a 250 μL polypropylene autosampler vial sealed with a Teflon cap and a volume of 10 μL was injected onto the ultral l performance liquid chromatography (UPLC) instrument for quantitative analysis using a temperature-controlled autosampler operating at 10° C.
Chromatographic analysis was performed using an Accela™ ultra high-performance system consisting of an analytical pump, and an autosampler coupled with TSQ Vantage mass spectrometer (Thermo Fisher Scientific Inc., Waltham Mass.). […] The mobile phase was composed of 0.1% formic acid in acetonitrile and 0.1% formic acid in H2O with gradient elution. The total run time for each analyte was 5.0 min.

[8] = target: glutamate carboxypeptidase II (GCP-II) (Homo sapiens, UniProt Q04609); details: GCP-II inhibition, Table 1; read-out: Potency (IC50); cited from earlier work
[9] = ex vivo, 1 h after 30 mg/kg i.n., relative to untreated control rats

T1 sequence (P70627 whole entry): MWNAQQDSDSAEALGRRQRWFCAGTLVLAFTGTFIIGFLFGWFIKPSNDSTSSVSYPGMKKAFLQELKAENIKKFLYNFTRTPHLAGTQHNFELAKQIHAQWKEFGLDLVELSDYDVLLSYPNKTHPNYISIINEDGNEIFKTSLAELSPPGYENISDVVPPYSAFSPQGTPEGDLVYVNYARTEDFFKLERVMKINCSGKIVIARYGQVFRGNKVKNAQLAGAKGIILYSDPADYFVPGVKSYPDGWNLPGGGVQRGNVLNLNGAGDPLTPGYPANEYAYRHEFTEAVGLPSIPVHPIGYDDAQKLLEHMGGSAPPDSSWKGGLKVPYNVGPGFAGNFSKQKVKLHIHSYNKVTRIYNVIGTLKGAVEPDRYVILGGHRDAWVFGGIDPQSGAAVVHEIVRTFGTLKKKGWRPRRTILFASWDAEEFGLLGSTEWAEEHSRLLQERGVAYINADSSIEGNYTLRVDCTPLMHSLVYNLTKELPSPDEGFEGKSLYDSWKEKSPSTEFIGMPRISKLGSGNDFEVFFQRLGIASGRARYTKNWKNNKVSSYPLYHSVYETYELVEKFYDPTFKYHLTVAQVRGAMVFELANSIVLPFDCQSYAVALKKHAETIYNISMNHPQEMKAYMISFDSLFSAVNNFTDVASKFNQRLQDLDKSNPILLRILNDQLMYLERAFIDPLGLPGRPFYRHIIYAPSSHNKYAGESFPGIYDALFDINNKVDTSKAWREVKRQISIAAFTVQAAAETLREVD
Chain of glutamate carboxypeptidase II (GCP-II) (Q04609 whole entry, species assumed): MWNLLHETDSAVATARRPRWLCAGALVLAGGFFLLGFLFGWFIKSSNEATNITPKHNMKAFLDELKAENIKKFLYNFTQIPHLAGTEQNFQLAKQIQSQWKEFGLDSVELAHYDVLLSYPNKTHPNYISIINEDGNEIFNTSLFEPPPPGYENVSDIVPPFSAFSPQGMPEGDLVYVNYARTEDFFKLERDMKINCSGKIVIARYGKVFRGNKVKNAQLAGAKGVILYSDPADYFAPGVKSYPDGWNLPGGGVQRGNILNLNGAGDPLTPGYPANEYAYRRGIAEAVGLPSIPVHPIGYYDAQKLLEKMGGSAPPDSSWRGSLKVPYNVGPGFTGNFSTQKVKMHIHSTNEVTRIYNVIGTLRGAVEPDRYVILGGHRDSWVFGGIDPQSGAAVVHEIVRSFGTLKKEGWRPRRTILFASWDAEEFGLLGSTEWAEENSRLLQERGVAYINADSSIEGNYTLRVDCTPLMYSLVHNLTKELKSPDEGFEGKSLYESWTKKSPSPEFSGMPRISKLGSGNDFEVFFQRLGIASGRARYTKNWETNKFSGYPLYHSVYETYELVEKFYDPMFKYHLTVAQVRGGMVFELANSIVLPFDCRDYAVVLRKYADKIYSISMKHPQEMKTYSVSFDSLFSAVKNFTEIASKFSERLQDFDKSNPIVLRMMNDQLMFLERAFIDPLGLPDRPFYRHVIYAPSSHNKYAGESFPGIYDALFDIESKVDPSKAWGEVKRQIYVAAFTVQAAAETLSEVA

## O=C(O)CCC(CP(=O)(O)O)C(=O)O (racemic) [2-PMPA, 2-(phosphonomethyl)-pentanedioic acid]
[1]; i.n.
  CSF concentration versus the IC50: > 100 fold
[1]; male, CSF, other: intranasal, 100 mg, CSF concentration, 100 mg total i.n.
  concentration at 0.5 h: 320 ng/mL and ~1.5 µM
[2]; [9]
  inhibition of GCP-II activity in cerebellum: 70%±5%
  inhibition of GCP-II activity in cortex: 100%
  inhibition of GCP-II activity in olfactory bulb: 100%
[2]; i.n. administration, summary statement
  inhibition of brain GCP-II enzymatic activity ex-vivo: complete inhibition
[3]
  plasma AUC0-t: 52300 ng·h/mL
[3]; cerebellum, read-out: brain tissue to plasma ratio based on AUCs, cerebellum
  Kp: 0.1
[3]; cortex, read-out: brain tissue to plasma ratio based on AUCs, cortex
  Kp: 0.71
[3]; olfactory bulb, read-out: brain tissue to plasma ratio based on AUCs, olfactory bulb
  Kp: 1.49
[4]; i.n. route, pooled plasma and brain data from i.p. and i.n.
  share of 2-PMPA reaching the brain accounted from the plasma 2-PMPA: 2%
[4]; male, Wistar, rat, brain, intraperitoneal, 30 mg/kg, following systemic administration, read-out: brain-to-plasma ratio
  Kp: ≤ 0.02
[4]; male, Wistar, rat, brain, other: intranasal, 30 mg/kg, intranasal versus other route, read-out: improvement in the brain-to-plasma ratio when administered through an intranasal route
  fold improvement in brain-to-plasma ratio, intranasal versus intraperitoneal: 100
[4]; male, Wistar, rat, olfactory bulb, cortex and cerebellum, ip, 30 mg/kg, rat, 30 mg/kg i.p., olfactory bulb, cortex and cerebellum, read-out: brain tissue to plasma ratio based on AUCs (AUC0-t, brain/AUC0-t, plasma)
  Kp: < 0.02
[4]; rat, 30 mg/kg i.n.
  AUC0-t cerebellum: 5.27 µg·h/g
  AUC0-t cortex: 37.7 µg·h/g
  AUC0-t olfactory bulb: 78.1 µg·h/g
  plasma Cmax: 24700 ng/mL
[4]; rat, 30 mg/kg i.p.
  AUC0-t cerebellum: 0.80 µg·h/g
  AUC0-t cortex: 0.84 µg·h/g
  AUC0-t olfactory bulb: 1.15 µg·h/g
  AUC0-t plasma: 50300 ng·h/mL
  apparent clearance: 9.71 mL/min/kg
  apparent volume of distribution: 0.82 L/kg
  peak plasma concentration (Cmax): 49500 ng/mL
[4]; rat, 30 mg/kg i.p., plasma
  elimination t1/2: 59.4 min
[5]; read-out: concentration in cerebellum
  concentration at 1 h: 2130 ng/g
[5]; read-out: concentration in cortex
  concentration at 1 h: 10300 ng/g
[5]; read-out: concentration in olfactory bulb
  concentration at 1 h: 31200 ng/g

## O=C(O)CCC(CCCS)C(=O)O (stereo not shown) [2-MPPA, 2-(3-mercaptopropyl)pentane-dioic acid]
[6]
  toxicity observed in primate studies: membranoproliferative glomerular nephritis; also recorded: immunological toxicities

## O=C(O)CC[C@@H](CP(=O)(O)O)C(=O)O [R-2-PMPA]
[7]
  concentration in cerebellum: 1.78 µg/g
  concentration in cortex: 10.1 µg/g
  concentration in olfactory bulb: 19.3 µg/g

## O=C(O)CC[C@H](CP(=O)(O)O)C(=O)O [S-2-PMPA]
[7]
  concentration in cerebellum: 2.51 µg/g
  concentration in cortex: 10.4 µg/g
  concentration in olfactory bulb: 28.5 µg/g

## N-[N-[(S)-1,3-dicarboxypropyl]carbamoyl]-L-cysteine [DCMC]
[8]
  IC50: 3.1 nM
[5]
  concentration in cerebellum: 0.20 µg/g
  concentration in cortex: 2.03 µg/g
  concentration in olfactory bulb: 2.12 µg/g
